Laboratory results published in article PMC5976250 (The Biochemical journal, 2017).

What was measured:
CaM [1] = conditions: α-family; ref [34],[49]; cited from earlier work
[2] = tested on: full-length Cx45 (mCx45-Rluc) interaction with Venus–CaM; test: BRET assay of CaM–Cx45 interaction in live HEK293 cells; assay type: cell-based, mouse (Cx45); rat (CaM); conditions: 50 μM BAPTA-AM
[3] = tested on: electrical uncoupling (gap junctions), amphibian embryonic cells, crayfish axons; conditions: cited from earlier work; for effect on uncoupling: Xenopus embryonic cells, ref [73], crayfish axons, ref [74],[75]
CaM [4] = molecular target: T1, CaM (Rattus norvegicus, UniProt P0DP29); conditions: earlier connexin peptide studies; ref [49]; cited from earlier work
CaM [5] = molecular target: T1, CaM; conditions: complex formation; ref [49]; listed as Cx50-derived peptide; cited from earlier work

In the case of “Cx44p132–153: α-family connexin Cx44 peptide”, the “binding mode to CaM (literature)” value (CaM [1]) is listed as “compact form”.
For `CC(=O)OCOC(=O)CN(CC(=O)OCOC(C)=O)c1ccccc1OCCOc1ccccc1N(CC(=O)OCOC(C)=O)CC(=O)OCOC(C)=O` [BAPTA-AM], the “intracellular Ca2+ after treatment” value [2] was ~ 0.27 nM and the “BRET signal (ratio 525/460 nm) after treatment” value ([2]; 20 min) was ~ 0.03.
For `Clc1ccc(C(c2ccc(Cl)cc2)n2cc[n+](CC(OCc3ccc(Cl)cc3Cl)c3ccc(Cl)cc3Cl)c2)cc1` (centres unmarked) [calmidazolium], the effect on uncoupling [3] is listed as “prevent uncoupling”.
In the case of “Cx43p136–158: α-family connexin Cx43 peptide”, the “chemical shift change pattern of CaM (literature)” value (CaM [4]) is listed as “localized change” and the “binding mode to CaM (literature)” value (CaM [1]) is listed as “compact form”.
For “Cx50p141–166: α-family connexin Cx50 peptide (FRLEGTLLRTYICHIIFKTLFEVGFI; UniProt P48165 141-166, looked up, fragment)”, the “chemical shift change pattern of CaM (literature)” value (CaM [4]) is given as “localized change”, the “binding mode to CaM (literature)” value (CaM [1]) is given as “embraced compact form” and the “decrease in hydrodynamic radius of CaM” value (CaM [5]) is given as “decreased significantly”.
For `CN1CCN(CCCN2c3ccccc3Sc3ccc(C(F)(F)F)cc32)CC1` [trifluoperazine (TFP), trifluoperazine], the “effect on electrical uncoupling of amphibian embryonic cells” value ([3]; ref [72]) is given as “protected amphibian embryonic cells from electrical uncoupling”.
In the case of `Cl.NCCCCCCNS(=O)(=O)c1cccc2c(Cl)cccc12` [W7, N-(6-aminohexyl)-5-chloro-1-naphthalenesulfonamide hydrochloride], the effect on uncoupling [3] is given as “prevent uncoupling”.
